The test concerns the target human NaV 1.8 (Homo sapiens, UniProt Q9Y5Y9). The test can be described thus: E-VIPR assay detecting and measuring NaV inhibition properties. Conditions: HEK cells expressing truncated human NaV 1.8. In kind it is cell-based. In short, it runs like this: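 HEK cells expressing truncated, fully active human NaV1.8, with KIR2.1 BacMam co-transduction, were loaded with CC2-DMPE/DiSBAC6(3) voltage-sensing dyes for 20 min at room temperature. Compounds were tested in 11-point 3-fold dilutions (300 nM top final), optionally with 25% human serum, under electrical stimulation with FRET read-out.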

The mark [1] stands for this setting: no human serum, read-out: IC50 in the E-VIPR Assay.
[2] abbreviates: in the presence of human serum (compound numbers followed by *), read-out: IC50 in the E-VIPR Assay, performed in the presence of human serum.

We go through 19 molecules from patent US20240368135A1 (VERTEX PHARMACEUTICALS INCORPORATED, priority 2021, published 2024).

SMILES strings stand for the structures. pIC50: −log10 of the molar value. Like-named read-outs stand apart in the source and are kept apart here. Where only a bound is given, the exact number is not on record here.

As a reminder, the pIC50 is the negative decadic logarithm of the IC50, by convention in mol/L.

Sequence of human NaV 1.8 (Q9Y5Y9 126-399 limits assumed): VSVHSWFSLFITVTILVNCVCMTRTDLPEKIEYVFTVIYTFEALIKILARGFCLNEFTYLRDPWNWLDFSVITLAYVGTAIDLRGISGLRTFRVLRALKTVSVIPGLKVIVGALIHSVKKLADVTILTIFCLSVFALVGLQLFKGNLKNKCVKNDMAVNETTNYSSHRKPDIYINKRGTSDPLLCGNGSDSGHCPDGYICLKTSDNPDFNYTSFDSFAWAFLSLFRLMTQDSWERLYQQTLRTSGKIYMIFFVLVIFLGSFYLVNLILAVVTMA
Sequence of human NaV 1.8 (Q9Y5Y9 660-890 limits assumed): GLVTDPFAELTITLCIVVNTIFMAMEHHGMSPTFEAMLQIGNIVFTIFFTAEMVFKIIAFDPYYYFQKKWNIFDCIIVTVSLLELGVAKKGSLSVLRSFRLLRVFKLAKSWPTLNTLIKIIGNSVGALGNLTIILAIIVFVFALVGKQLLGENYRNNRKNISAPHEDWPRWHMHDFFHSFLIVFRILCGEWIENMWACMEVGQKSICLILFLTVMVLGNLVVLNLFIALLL
Sequence of human NaV 1.8 (Q9Y5Y9 1148-1722 limits assumed): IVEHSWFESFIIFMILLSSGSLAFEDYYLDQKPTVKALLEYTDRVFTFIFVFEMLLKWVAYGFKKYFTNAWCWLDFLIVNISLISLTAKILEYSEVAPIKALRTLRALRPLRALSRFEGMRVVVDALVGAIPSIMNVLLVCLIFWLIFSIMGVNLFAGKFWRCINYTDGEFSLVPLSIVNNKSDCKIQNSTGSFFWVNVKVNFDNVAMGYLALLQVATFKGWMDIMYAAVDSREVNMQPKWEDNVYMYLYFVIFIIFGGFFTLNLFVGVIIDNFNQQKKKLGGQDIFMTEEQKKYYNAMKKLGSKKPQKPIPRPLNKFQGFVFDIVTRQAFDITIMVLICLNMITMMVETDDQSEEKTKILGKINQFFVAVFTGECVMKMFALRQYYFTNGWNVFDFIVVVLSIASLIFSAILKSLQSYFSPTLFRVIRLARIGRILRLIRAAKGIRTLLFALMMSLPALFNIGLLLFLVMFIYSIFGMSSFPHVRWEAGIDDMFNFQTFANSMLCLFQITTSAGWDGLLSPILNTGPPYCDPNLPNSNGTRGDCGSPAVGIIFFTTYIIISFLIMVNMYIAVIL

Regarding `Cc1nocc1NC(=O)[C@@H]1O[C@@](C)(C(F)(F)F)[C@@H](C)[C@H]1c1ccc(F)c(F)c1OCCN1C[C@H]2COC[C@H]2C1` [Compound 634, (2R,3S,4S,5R)-3-(3,4-difluoro-2-(2-((3aR,6aS)-tetrahydro-1H-furo[3,4-c]pyrrol-5(3H)-yl)ethoxy)phenyl)-4,5-dimethyl-N-(3-methylisoxazol-4-yl)-5-(trifluoromethyl)tetrahydrofuran-2-carboxamide], the pIC50 under setting [1] was 7.00 to 8.00. Turning to `C[C@H]1[C@@H](c2ccc(F)c(F)c2OCCO)[C@H](C(=O)Nc2ccnc(CO)c2)O[C@@]1(C)C(F)(F)F` [Compound 537, (2R,3S,4S,5R)-3-(3,4-difluoro-2-(2-hydroxyethoxy)phenyl)-N-(2-(hydroxymethyl)pyridin-4-yl)-4,5-dimethyl-5-(trifluoromethyl)tetrahydrofuran-2-carboxamide], the negative logarithm of the IC50 (pIC50) under setting [1] is over 8.00.

In the case of `CNCC(=O)Nc1cc(NC(=O)[C@@H]2O[C@@](C)(C(F)(F)F)[C@@H](C)[C@H]2c2ccc(F)c(F)c2OC)ccn1` [Compound 488], the pIC50 under setting [1] was 7.00 to 8.00.

For the molecule `Cc1oncc1NC(=O)[C@@H]1O[C@@](C)(C(F)(F)F)[C@@H](C)[C@H]1c1ccc(F)c(F)c1OCCO` [Compound 559, (2R,3S,4S,5R)-3-(3,4-difluoro-2-(2-hydroxyethoxy)phenyl)-4,5-dimethyl-N-(5-methylisoxazol-4-yl)-5-(trifluoromethyl)tetrahydrofuran-2-carboxamide], the pIC50 under setting [1] was 7.00 to 8.00.

On to `COc1c(C2C(C(=O)Nc3ccnc(S(C)(=N)=O)c3)OC(C)(C(F)(F)F)C2C)ccc(F)c1F` (single isomer, unassigned) [Compound 55, 3-(3,4-difluoro-2-methoxy-phenyl)-4,5-dimethyl-N-[2-(methylsulfonimidoyl)-4-pyridyl]-5-(trifluoromethyl)tetrahydrofuran-2-carboxamide], for which the pIC50 under setting [1] was over 8.00.

With `COc1c([C@H]2[C@H](C(=O)Nc3cc(C4(N)CCOC4)ncc3F)O[C@@](C)(C(F)(F)F)[C@H]2C)ccc(F)c1F` (single isomer, unassigned) [Compound 349, rel-(2R*,3S*,4S*,5R*)-N-(2-(3-aminotetrahydrofuran-3-yl)-5-fluoropyridin-4-yl)-3-(3,4-difluoro-2-methoxyphenyl)-4,5-dimethyl-5-(trifluoromethyl)-tetrahydrofuran-2-carboxamide], the pIC50 under setting [1] was over 8.00. On to `COc1c([C@@H]2[C@@H](C(=O)Nc3ccnc([S+](C)[O-])c3)O[C@](C)(C(F)(F)F)[C@@H]2C)ccc(F)c1F` (single isomer, unassigned) [Compound 6], for which the pIC50 under setting [2] is at most 6.00. In the case of `COc1c([C@H]2[C@H](C(=O)NC(C)c3ccc(C)c(F)c3)O[C@@](C)(C(F)(F)F)[C@H]2C)ccc(F)c1F` (stereo partly drawn) [Compound 308, (2R,3S,4S,5R)-3-(3,4-difluoro-2-methoxyphenyl)-N-(1-(3-fluoro-4-methylphenyl)ethyl)-4,5-dimethyl-5-(trifluoromethyl)tetrahydrofuran-2-carboxamide], the pIC50 under setting [1] was at most 6.00. For the molecule `COc1c([C@H]2[C@H](C(=O)Nc3cnn(C4COC4)c3C)O[C@@](C)(C(F)(F)F)[C@H]2C)ccc(F)c1F` (single isomer, unassigned) [Compound 331], the negative logarithm of the IC50 (pIC50) under setting [1] was 7.00 to 8.00. For `COc1c([C@H]2[C@H](C(=O)Nc3ccc(C(=O)N(C)S(C)(=O)=O)nc3)O[C@@](C)(C(F)(F)F)[C@H]2C)ccc(F)c1F` [Compound 376, 5-[[(2R,3S,4S,5R)-3-(3,4-difluoro-2-methoxy-phenyl)-4,5-dimethyl-5-(trifluoromethyl)tetrahydrofuran-2-carbonyl]amino]-N-methyl-N-methylsulfonyl-pyridine-2-carboxamide], under setting [1], the pIC50 is 7.00 to 8.00. With `COc1c([C@H]2[C@H](C(=O)Nc3cc(C(C)(N)CO)ncc3F)O[C@@](C)(C(F)(F)F)[C@H]2C)ccc(F)c1F` (single isomer, unassigned) [Compound 360], under setting [1], the pIC50 is over 8.00.

With `COc1c([C@@H]2C[C@](C)(C(F)(F)F)O[C@H]2C(=O)Nc2ccnc([C@H](O)[C@@H](C)O)c2)ccc(F)c1F` (stereo in doubt) [Compound 699, rel-(2R,3S,5R)-3-(3,4-difluoro-2-methoxyphenyl)-N-(2-((1S,2R)-1,2-dihydroxypropyl)pyridin-4-yl)-5-methyl-5-(trifluoromethyl)tetrahydrofuran-2-carboxamide], the pIC50 under setting [2] is 7.00 to 8.00. On to `Cc1nn(C(F)F)cc1NC(=O)[C@@H]1O[C@@](C)(C(F)(F)F)[C@@H](C)[C@H]1c1ccc(F)c(F)c1CN1CC2(COC2)C1` [Compound 670, (2R,3S,4S,5R)-3-(2-((2-oxa-6-azaspiro[3.3]heptan-6-yl)methyl)-3,4-difluorophenyl)-N-(1-(difluoromethyl)-3-methyl-1H-pyrazol-4-yl)-4,5-dimethyl-5-(trifluoromethyl)tetrahydrofuran-2-carboxamide], for which, under setting [1], the pIC50 is 7.00 to 8.00. `Cc1nocc1NC(=O)[C@@H]1O[C@@](C)(C(F)(F)F)[C@@H](C)[C@H]1c1ccc(F)c(F)c1OCCN1CC(C(F)F)C1` [Compound 629, (2R,3S,4S,5R)-3-(2-(2-(3-(difluoromethyl)azetidin-1-yl)ethoxy)-3,4-difluorophenyl)-4,5-dimethyl-N-(3-methylisoxazol-4-yl)-5-(trifluoromethyl)tetrahydrofuran-2-carboxamide]: the pIC50 under setting [1] is 7.00 to 8.00. In the case of `COc1c([C@H]2[C@H](C(=O)Nc3ccnc(N4CC[C@H](O)C4=O)c3)O[C@@](C)(C(F)(F)F)[C@H]2C)ccc(F)c1F` [Compound 473, (2R,3S,4S,5R)-3-(3,4-difluoro-2-methoxyphenyl)-N-(2-((S)-3-hydroxy-2-oxopyrrolidin-1-yl)pyridin-4-yl)-4,5-dimethyl-5-(trifluoromethyl)tetrahydrofuran-2-carboxamide], under setting [1], the pIC50 is 7.00 to 8.00.

Turning to `COc1c([C@H]2[C@H](C(=O)Nc3ccnc(C4(N)COC4)c3)O[C@@](C)(C(F)(F)F)[C@H]2C)ccc(F)c1F` [Compound 340, (2R,3S,4S,5R)-N-(2-(3-aminooxetan-3-yl)pyridin-4-yl)-3-(3,4-difluoro-2-methoxyphenyl)-4,5-dimethyl-5-(trifluoromethyl)-tetrahydrofuran-2-carboxamide], the pIC50 under setting [1] is over 8.00. In the case of `COc1c([C@H]2[C@H](C(=O)NC3CCCCNC3=O)O[C@@](C)(C(F)(F)F)[C@H]2C)ccc(F)c1F` (stereo partly drawn) [Compound 299, (2R,3S,4S,5R)-3-(3,4-difluoro-2-methoxyphenyl)-4,5-dimethyl-N-(2-oxoazepan-3-yl)-5-(trifluoromethyl)tetrahydrofuran-2-carboxamide], the pIC50 under setting [1] was at most 6.00.

For the molecule `C[C@H]1[C@@H](c2ccc(F)c(F)c2OC(F)F)[C@H](C(=O)Nc2cc(S(C)(=O)=O)ccn2)O[C@@]1(C)C(F)(F)F` (single isomer, unassigned) [Compound 72], the pIC50 under setting [1] is 7.00 to 8.00. With `COc1c([C@H]2[C@H](C(=O)Nc3ccnc(N(C)C(=O)CN(C)C)c3)O[C@@](C)(C(F)(F)F)[C@H]2C)ccc(F)c1F` [Compound 522, (2R,3S,4S,5R)-3-(3,4-difluoro-2-methoxy-phenyl)-N-[2-[[2-(dimethylamino)acetyl]-methyl-amino]-4-pyridyl]-4,5-dimethyl-5-(trifluoromethyl)tetrahydrofuran-2-carboxamide], the pIC50 under setting [1] was over 8.00.
